Assay results from patent publication US6664406B1, “Nervonic acid derivatives, their preparation and use” (Croda International PLC, priority 1999, dated 2003).
Where two headings read alike, the source gives them in different places. Marks after values point to notes of the source that are not given here.

Key:
[1] = test system: acute EAE in the Lewis rat; assay: Prophylactic effect of glyceryl trinervonate on acute EAE (Comparative Example); type: in vivo
Experimental: Prophylactic effects of glyceryl trinervonate (GTN, Description 4) were assessed on acute EAE in the Lewis rat. Induction and Assessment of EAE was as for Example 4. Dosing regime involved oral administration in Miglyol 810 five days prior to inoculation and for 20 days post-inoculation. (Refer to Example 8 regarding insignificance of use of PBS or Miglyol vehicles).

[2] = Nervonic acid composition of total polar lipid from rat brain (Example 9); type: in vivo; settings: after Example 6 treatments; NA:GLA at both low and high doses
Experimental: (§1) Upon termination of certain biological evaluations, rat or mice brains were extracted and the fatty acid composition of total polar lipids from rat/mouse brain was determined.
(§2) Biological material was sent for analysis to Dr J. Hendersen at the University of Stirling, Institute of Aquaculture, Scotland. Analyses were carried out on two batches of experiments (detailed respectively in Example 6 and Example 7).

[3] = test system: neurological EAE in the Lewis rat
Experimental: Male Lewis rats, weighing 230-280 g on the day of inoculation, were injected in each rear footpad with 0.1 ml of an emulsion containing equal parts of guinea pig spinal cord; phosphate buffered saline (PBS) and incomplete Freund's adjuvant supplemented with 10 mg/ml Mycobacterium tuberculosis H37Ra.
(§5) Animals were weighed daily and assessed for neurological disease from day 7 post-inoculation (PI). Rats displaying symptoms of EAE were scored as follows: 1: flaccid tail (FT), 2: hind limb hypotonia (HLH), 3: partial hind limb paralysis (PHLP), 4: complete hind limb paralysis (CHLP), 5: moribund or dead.
NA:GLA (neat oil) was orally administered 5 days prior to inoculation and continued for 25 days PI, at a dose of 750 mg/kg body weight/day and 1000 mg/kg body weight/day. NA:DHA (neat oil) was given by an identical dosing regime at a dose of 500 mg/kg body weight/day. Control-sensitised animals received PBS vehicle or were undosed. Undosed, vehicle and low dose NA:GLA treatments contained 7 animals. Four rats received high dose NA:GLA and 3 rats were dosed with NA:DHA.

[4] = Miscibility / physical state of oral compositions in vehicle; type: physicochemical; settings: room temperature (about 20° C.); dilution in vehicle
From the text: Formulations of the present invention suitable for oral administration may be in the form of discrete units such as capsules, cachets, tablets or lozenges, each containing a predetermined amount of the active ingredient; in the form of a powder or granules; in the form of a solution or a suspension in an aqueous liquid or non-aqueous liquid; or in the form of an oil-in-water emulsion or a water-in-oil emulsion. The active ingredient may also be in the form of a bolus, electuary or paste. For such formulations, a range of dilutions of the active ingredient in the vehicle is suitable, such as from 1% to 99%, preferably 5% to 50% and more preferably 10% to 25% dilution. Depending upon the level of dilution, the formulation will be either a liquid at room temperature (in the region of about 20° C.) or a low-melting solid.

[5] = Nervonic acid composition of total polar lipid from mouse brain (Example 9); type: in vivo; settings: CREAE-inoculated mice
Experimental: as §1, §2

[6] = test system: chronic EAE in the Biozzi mouse model; assay: NA:NA and NA:GLA in ethyl oleate in chronic relapsing EAE (Example 7); type: in vivo; settings: for AG: Percentage of mice in the group / CFT: Percentage of mice in the group / CHLP: Percentage of mice in the group / HLH: Percentage of mice in the group / PFT: Percentage of mice in the group / PHLP: Percentage of mice in the group: ethyl oleate vehicle
Experimental: (§3) Male Biozzi mice weighing 30-35 g were injected in each flank with 0.15 mL of an emulsion containing lyophilised mouse spinal cord, phosphate buffered saline and incomplete Freund's adjuvant supplemented with Mycobacterium butyricum and Mycobacterium tuberculosis H37Ra.
(§4) 1: Partial Flaccid Tail (PFT), 2: Complete Flaccid Tail (CFT), 3: Impaired Righting Reflex (IRR), 4: Ataxic Gait (AG), 5: Hind Limb Hypotonia (HLH), 6: Partial Hind Limb Paralysis (PHLP), 7: Complete Hind Limb Paralysis (CHLP), 8: Moribund (M), 9: Dead (D).

[7] = test system: neurological EAE in the Lewis rat; assay: NA:NA (ethyl oleate formulation) in acute EAE (Example 5)
Experimental: Male Lewis rats, weighing 240-360 g on the day of inoculation, were injected in each rear footpad with 0.1 ml of an emulsion containing equal parts of guinea pig spinal cord, phosphate buffered saline (PBS) and incomplete Freund's adjuvant supplemented with 10 mg/ml Mycobacterium tuberculosis H37Ra.
as §5
Control-sensitised animals received ethyl oleate vehicle or were undosed, and each treatment contained 10 animals.
Students t-test was used to assess significant differences in neurological scores and the Fishers exact probability test for the presence or absence of symptoms.

[8] = test system: CREAE in the Biozzi mouse model; assay: NA:NA and NA:GLA in Miglyol 810 in CREAE (Example 8); type: in vivo
Experimental: as §3, §4
Therefore, Miglyol appeared well-suited for use as a vehicle in subsequent studies to determine the efficacy of compounds in CREAE. Therefore, using Miglyol 810 as the new vehicle, prophylactic effects of NA:NA and NA:GLA were re-assessed on CREAE in the Biozzi mouse model (90% dilution, 1000 mg/kg/day, up to 43 days PI).

[9] = Biozzi mouse, 10% w/w in ethyl oleate, 1000 mg/kg body weight/day
[10] = acute phase, Biozzi mouse, 10% w/w in ethyl oleate, 1000 mg/kg body weight/day
[11] = relapse phase, Biozzi mouse, 10% w/w in ethyl oleate, 1000 mg/kg body weight/day
[12] = 10% w/w in ethyl oleate, 1000 mg/kg body weight/day
[13] = 10% w/w in ethyl oleate, oral 1000 mg/kg body weight/day, n=10
[14] = acute phase, Miglyol 810 vehicle, 1000 mg/kg/day
[15] = acute phase, Miglyol 810 vehicle, n=12, NA:GLA n=11
[16] = relapse phase, Miglyol 810 vehicle, 1000 mg/kg/day
[17] = relapse phase, Miglyol 810 vehicle, NA:GLA n=9, NA:NA n=11

CCCCCCCC/C=C/CCCCCCCCCCCCCC(=O)OCC(COC(=O)CCCCCCCCCCCCC/C=C/CCCCCCCC)OC(=O)CCCCCCCCCCCCC/C=C/CCCCCCCC [GTN, Glyceryl Trinervonate]
onset and loss of symptoms together with duration of the disease ([1]; compared to vehicle or undosed groups): not significantly different from vehicle or undosed groups
adverse effect (body weight gain until day 10) ([1]; dietary administered): did not induce any major adverse effect
effect on parameters associated with neurological deficits in EAE-diseased rats ([1]; oral in Miglyol 810): did not significantly affect any parameter
No. of diseased rats ([1]; oral in Miglyol 810, 5 days prior to inoculation and 20 days PI, n=10): 10/10
CFT: Percentage of rats in the group ([1]; oral in Miglyol 810, n=10): 100%
CHLP: Percentage of rats in the group ([1]; oral in Miglyol 810, n=10): 40%
HLH: Percentage of rats in the group ([1]; oral in Miglyol 810, n=10): 90%
MD: Percentage of rats in the group ([1]; oral in Miglyol 810, n=10): 0%
Mean day of symptom loss ([1]; oral in Miglyol 810, n=10): 17.0 ± 1.2 days
Mean day of symptom onset ([1]; oral in Miglyol 810, n=10): 11.2 ± 1.2 days
Mean duration of symptoms ([1]; oral in Miglyol 810, n=10): 5.8 ± 1.1 days
Number of dead ([1]; oral in Miglyol 810, n=10): 0/10
PFT: Percentage of rats in the group ([1]; oral in Miglyol 810, n=10): 100%
PHLP: Percentage of rats in the group ([1]; oral in Miglyol 810, n=10): 70%

CCC=CCC=CCC=CCC=CCC=CC/C=C\CCC(=O)OCCCOC(=O)CCCCCCCCCCCCC/C=C\CCCCCCCC [NA:DHA, 1-(z-15-tetracosenoyloxy)-3-(z-4,7,10,13,16,19-docosahexaenoyloxy)propane]
NA levels in rat brain lipids compared to normal, undosed and vehicle treated animals [2]: did not enhance the NA levels
CHLP: Number of animals showing symptoms/total ([3]; 500 mg/kg/day): 3/3
FT: Number of animals showing symptoms/total ([3]; 500 mg/kg/day): 3/3
HLH: Number of animals showing symptoms/total ([3]; 500 mg/kg/day): 3/3
PHLP: Number of animals showing symptoms/total ([3]; 500 mg/kg/day): 3/3
daily score ([3]; 500 mg/kg/day): enhanced compared to levels noted for control and NA:GLA-treated animals
development of CHLP ([3]; 500 mg/kg/day): 11.3±1.3
effect on neurological symptoms ([3]; 500 mg/kg/day): intensified neurological symptoms
Mean day of final symptom loss (±SD) ([3]; neat oil oral 500 mg/kg/day): 19.3 ± 1.2 days
Mean day of symptom onset (±SD) ([3]; neat oil oral 500 mg/kg/day): 10.3 ± 0.6 days
Number of dead/total ([3]; neat oil oral 500 mg/kg/day): 0/3
Number diseased/total ([3]; neat oil oral 500 mg/kg/day, 5 days prior to inoculation and 25 days PI): 3/3

CCCCCCCC/C=C\CCCCCCCCCCCCCC(=O)OCCCOC(=O)CCCCCCCCCCCCC/C=C\CCCCCCCC [NA:NA, 1,3-di-(z-15-tetracosenoyloxy)propane]
concentration at which compositions are liquids at room temperature [4]: ≤ 25%
NA levels in mouse brain lipids compared to undosed and vehicle [5]: enhancement of the NA levels in brain lipids
Acute and relapse symptoms (mean neurological scores) [6, 9]: completely abolished
onset of relapse [6, 9]: delayed, but not significantly
Mean day of symptom loss [6, 10]: 24.7 ± 3.2 days
Mean day of symptom onset [6, 10]: 22.3 ± 3.8 days
Mean duration of symptoms [6, 10]: 2.3 ± 1.2 days
Number of dead mice [6, 10]: 0/10
No. of diseased mice ([6]; acute phase, Biozzi mouse, […], oral 1000 mg/kg body weight/day, 5 days prior to inoculation and 43 days PI, n=10): 3/10
AG: Percentage of mice in the group ([6]; acute phase, n=10): 20%
CFT: Percentage of mice in the group ([6]; acute phase, n=10): 0%
CHLP: Percentage of mice in the group ([6]; acute phase, n=10): 0%
HLH: Percentage of mice in the group ([6]; acute phase, n=10): 10%
PFT: Percentage of mice in the group ([6]; acute phase, n=10): 10%
PHLP: Percentage of mice in the group ([6]; acute phase, n=10): 0%
Mean day of symptom onset [6, 11]: 43.3 ± 1.2 days
No. of diseased mice [6, 11]: 3/10
Number of dead mice [6, 11]: 1/10
AG: Percentage of mice in the group ([6]; relapse phase, n=10): 30%
CFT: Percentage of mice in the group ([6]; relapse phase, n=10): 0%
CHLP: Percentage of mice in the group ([6]; relapse phase, n=10): 0%
HLH: Percentage of mice in the group ([6]; relapse phase, n=10): 30%
PFT: Percentage of mice in the group ([6]; relapse phase, n=10): 20%
PHLP: Percentage of mice in the group ([6]; relapse phase, n=10): 0%
CHLP: Number of animals showing symptoms/total [7, 12]: 1/10
FT: Number of animals showing symptoms/total [7, 12]: 6/10**
HLH: Number of animals showing symptoms/total [7, 12]: 4/10***
Neurological scores [7, 12]: consistently lower compared to values recorded for undosed and vehicle-treated animals
PHLP: Number of animals showing symptoms/total [7, 12]: 3/10
animals that experienced symptoms of disease [7, 12]: 60%
effect on incidence of disease [7, 12]: significantly reduces the incidents of disease
Mean day of final symptom loss (±SD) [7, 13]: 16.3 ± 1.0 days
Mean day of symptom onset (±SD) [7, 13]: 12.3 ± 0.8 days
Mean duration of symptoms (day ± SD) [7, 13]: 4.0 ± 1.2 days
Number of dead/total [7, 13]: 0/10
Number diseased/total ([7]; […], oral 1000 mg/kg body weight/day, 5 days prior to inoculation and 22 days PI, n=10): 6/10*
effect on the neurological course of CREAE ([8]; Biozzi mouse, Miglyol 810 vehicle, 1000 mg/kg/day): did not seem significantly to alter the course of CREAE
No. of diseased mice ([8]; acute phase, Biozzi mouse, Miglyol 810 vehicle (90% dilution), 1000 mg/kg/day, up to 43 days PI): 12/12
Mean day of symptom loss [8, 14]: 26.3 ± 1.0 days
Mean day of symptom onset [8, 14]: 17.1 ± 1.9 days
Mean duration of symptoms [8, 14]: 9.2 ± 1.6 days
Number of dead mice [8, 14]: 1/12
AG: Percentage of mice in the group [8, 15]: 100%
CFT: Percentage of mice in the group [8, 15]: 100%
CHLP: Percentage of mice in the group [8, 15]: 58%
D (dead): Percentage of mice in the group [8, 15]: 8%
HLH: Percentage of mice in the group [8, 15]: 100%
IRR: Percentage of mice in the group [8, 15]: 100%
M (moribund): Percentage of mice in the group [8, 15]: 0%
PFT: Percentage of mice in the group [8, 15]: 100%
PHLP: Percentage of mice in the group [8, 15]: 75%
Mean day of symptom loss [8, 16]: 44.0 ± 3.6 days
Mean day of symptom onset [8, 16]: 34.3 ± 6.6 days
Mean duration of symptoms [8, 16]: 13.7 ± 4.0 days
No. of diseased mice [8, 16]: 9/11
Number of dead mice [8, 16]: 3/11
AG: Percentage of mice in the group [8, 17]: 82%
CFT: Percentage of mice in the group [8, 17]: 82%
CHLP: Percentage of mice in the group [8, 17]: 73%
D (dead): Percentage of mice in the group [8, 17]: 27%
HLH: Percentage of mice in the group [8, 17]: 82%
IRR: Percentage of mice in the group [8, 17]: 82%
M (moribund): Percentage of mice in the group [8, 17]: 0%
PFT: Percentage of mice in the group [8, 17]: 82%
PHLP: Percentage of mice in the group [8, 17]: 73%

CCCCCCCC/C=C\CCCCCCCC(=O)OCC [ethyl oleate]
effect of the vehicle on incidence and severity of chronic relapsing EAE ([6]; Biozzi mouse, ethyl oleate vehicle alone, compared to undosed): significantly reduced the incidence and severity of the acute and relapsing phases
